Laboratory results published in US4496555A, “Compounds and compositions for inhibiting estrogen sulfotransferase transferase activity, process and novel intermediates therein” (Wayne State University, priority 1983, dated 1985).

Columns and labels:
[1] = system: receptor binding and nuclear migration of physiological levels of 17β-estradiol; details: Rozhin et al 1977; cited from earlier work
[2] = system: estrogen sulfurylation; details: Rozhin et al, J. Biol Chem., 1977, 252, 7214; cited from earlier work
[3] = target: T1, Bovine Adrenal Estrogen Sulfotransferase (Bos taurus, UniProt P19217); assay: Purified bovine adrenal estrogen sulfotransferase inhibition; assay type: biochemical; details: purified bovine adrenal enzyme; inhibitor concentration not given
T1 construct: from tissue; host or cells: bovine adrenal
T1 sequence (P19217 1-295): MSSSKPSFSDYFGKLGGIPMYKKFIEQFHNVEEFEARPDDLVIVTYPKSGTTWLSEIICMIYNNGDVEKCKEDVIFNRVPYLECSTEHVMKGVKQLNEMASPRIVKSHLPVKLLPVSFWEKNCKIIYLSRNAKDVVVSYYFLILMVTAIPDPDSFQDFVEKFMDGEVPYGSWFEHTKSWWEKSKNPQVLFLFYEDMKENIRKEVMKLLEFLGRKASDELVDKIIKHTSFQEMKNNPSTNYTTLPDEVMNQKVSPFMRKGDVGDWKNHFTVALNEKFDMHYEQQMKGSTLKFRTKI
Procedure: (§1) The estrogen sulfotransferase inhibiting activity of compounds within the scope of the invention are determined by inhibition of bovine adrenal or porcine uterine estrogen sulfotransferase. The desired concentration of estrogen sulfates is determined by comparisons after appropriate incubations with and without inhibitors and at various concentrations of inhibitors in the incubation. A detailed description of materials and methods for both bovine adrenal sulfotransferase inhibition and metabolism of estrogen in porcine uterus during implantation is described in U.S. Pat. No. 4,340,602 incorporated herein by reference above. Additionally, U.S. Pat. No. 4,340,602 describes materials and methods for determining estrogen sulfurylation in human endometrial curettings.
*Methods described in: Rozhin, J., et al. J. Biol. Chem. 252, 7214 (1977)

[4] = target: T2, Porcine Uterine Estrogen Sulfotansferase (Sus scrofa, UniProt A0A286ZW98); assay: Inhibition of porcine uterine estrogen sulfotransferase (estrogen sulfates formed); assay type: biochemical; details: control 1.26 p mole
T2 sequence (A0A286ZW98 1-296): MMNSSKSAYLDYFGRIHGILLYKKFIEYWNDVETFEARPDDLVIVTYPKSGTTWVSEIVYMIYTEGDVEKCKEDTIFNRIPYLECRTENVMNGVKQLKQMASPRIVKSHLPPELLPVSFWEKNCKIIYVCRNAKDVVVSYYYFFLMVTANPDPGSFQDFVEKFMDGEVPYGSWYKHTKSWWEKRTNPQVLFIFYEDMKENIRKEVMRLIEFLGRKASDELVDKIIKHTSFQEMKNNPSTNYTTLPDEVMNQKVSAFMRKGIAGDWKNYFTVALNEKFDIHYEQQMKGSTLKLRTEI
Procedure: as §1

| Structure (SMILES) | interference with receptor binding and nuclear migration of 17β-estradiol [1] | estrogen sulfurylation [2] | % Inhibition [3] | Estrogen Sulfates ([4]; 10-fold inhibitor) | Estrogen Sulfates ([4]; 10^2-fold inhibitor) | Estrogen Sulfates ([4]; 10^3 fold inhibitor) |
| --- | --- | --- | --- | --- | --- | --- |
| COc1ccc2c(c1[N+](=O)[O-])CC[C@@H]1[C@@H]2CC[C@]2(C)C(=O)CC[C@@H]12 [4-nitroestrone 3-0-methylether] | without interfering with the receptor binding and nuclear migration | blocks estrogen sulfurylation | – | – | – | – |
| C[C@]12CC[C@@H]3c4cccc(F)c4CC[C@H]3[C@@H]1CC[C@@H]2O [4-F-1,3,5(10)estratriene 17β-ol, 4-Fluoroestra-1,3,5-(10)-trien-17β-ol] | – | – | 81% | 1.07 p mole | 1.08 p mole | 0.67 p mole |
